Assay results reported in patent publication US20240124444A1 (Celgene Corporation, priority 2020, published 2024).
Like-named read-outs stand apart in the source and are kept apart here.

Tested on: C. parvum strain UGA1
Assay: C. parvum growth inhibition assay (Nluc luminescence in HCT-8 cells)
Type: cell-based, Cryptosporidium parvum
Conditions: Cryptosporidium parvum; for inhibition at 1 µM / inhibition at 10 µM: HCT-8; for inhibition at 1 µM: read-out: % inh @ 1 uM C. parvum; for inhibition at 10 µM: read-out: % inh @ 10 uM C. parvum; for EC50: HCT-8, 48 h, C. parvum growth inhibition in HCT-8 cells, 48 hours, 6 concentrations 10-0.04 μM
[1] = single point inhibition at 1 uM
[2] = single point inhibition at 10 uM
[3] = single point inhibition @ 10 uM

| SMILES | inhibition at 1 µM [1] [%] | inhibition at 10 µM [2] [%] | inhibition at 1 µM (single point inhibition @ 1 uM) [%] | inhibition at 10 µM [3] [%] | EC50 [µM] |
| --- | --- | --- | --- | --- | --- |
| CN(C(=O)c1cnn(C)c1)c1cc2[nH]c(-c3ccnc(NCC(F)(F)F)n3)cc2cn1 [Example 257, N,1-dimethyl-N-(2-(2-(2,2,2-trifluoroethylamino)pyrimidin-4-yl)-1H-pyrrolo[3,2-c]pyridin-6-yl)-1H-pyrazole-4-carboxamide] | 0 to 33 | 0 to 33 |  |  |  |
| CC(C)COc1nccc(-c2cc3cnc(NC(=O)c4cnn(C)c4)cc3[nH]2)n1 [Example 311, N-(2-(2-isobutoxypyrimidin-4-yl)-1H-pyrrolo[3,2-c]pyridin-6-yl)-1-methyl-1H-pyrazole-4-carboxamide] | 0 to 33 | 0 to 33 |  |  |  |
| CC(C)n1cc(C(=O)Nc2cc3[nH]c(-c4ccnc(OCC(F)(F)F)n4)cc3cn2)cn1 [Example 186, 1-isopropyl-N-(2-(2-(2,2,2-trifluoroethoxy)pyrimidin-4-yl)-1H-pyrrolo[3,2-c]pyridin-6-yl)-1H-pyrazole-4-carboxamide] |  |  | 0 to 33 | 67 to 100 |  |
| COc1nccc(-c2cc3cnc(NC(=O)[C@H]4C[C@@H](O)C4)cc3n2C)n1 [Example 163, (1s,3s)-3-hydroxy-N-(2-(2-methoxypyrimidin-4-yl)-1-methyl-1H-pyrrolo[3,2-c]pyridin-6-yl)cyclobutanecarboxamide] |  |  | 0 to 33 | 67 to 100 |  |
| Cn1c(-c2cnco2)cc2cnc(NC(=O)C3CC3)cc21 [Example 74, N-(1-methyl-2-(oxazol-5-yl)-1H-pyrrolo[3,2-c]pyridin-6-y)cyclopropanecarboxamide] |  |  |  |  | > 1 |
| CC(C)n1cc(C(=O)Nc2cc3c(cn2)cc(-c2ccnc(NCC(F)F)n2)n3C)cn1 [Example 169, N-(2-(2-(2,2-difluoroethylamino)pyrimidin-4-yl)-1-methyl-1H-pyrrolo[3,2-c]pyridin-6-yl)-1-isopropyl-1H-pyrazole-4-carboxamide] |  |  | 0 to 33 | 67 to 100 |  |
| N#Cc1cc2cnc(Nc3cnn(C4CCOCC4)c3)cc2[nH]1 [Example 151, 6-(1-(tetrahydro-2H-pyran-4-yl)-1H-pyrazol-4-ylamino)-1H-pyrrolo[3,2-c]pyridine-2-carbonitrile] |  |  | 0 to 33 | 67 to 100 |  |
| CC(C)c1cc2cnc(NC3CCOCC3)cc2[nH]1 [Example 359, 2-isopropyl-N-(tetrahydro-2H-pyran-4-yl)-1H-pyrrolo[3,2-c]pyridin-6-amine] |  |  |  |  | > 1 |
| CNC(=O)Nc1cc2[nH]c(-c3ccnc(C)c3)cc2cn1 [Example 214, 1-methyl-3-(2-(2-methylpyridin-4-yl)-1H-pyrrolo[3,2-c]pyridin-6-yl)urea] | 0 to 33 | 67 to 100 |  |  |  |
| CN(CC(F)(F)F)c1cc(-c2cc3cnc(NC4CCOCC4)cc3[nH]2)ccn1 [Example 381, 2-(2-(methyl(2,2,2-trifluoroethyl)amino)pyridin-4-yl)-N-(tetrahydro-2H-pyran-4-yl)-1H-pyrrolo[3,2-c]pyridin-6-amine] |  |  |  |  | > 1 |
| O=C(Nc1cc2[nH]c(-c3cnc(C(F)(F)F)o3)cc2cn1)C1CC1 [Example 110, N-(2-(2-(trifluoromethyl)oxazol-5-yl)-1H-pyrrolo[3,2-c]pyridin-6-yl)cyclopropanecarboxamide] |  |  |  |  | > 1 |
| Cn1cc(C(=O)Nc2cc3[nH]c(-c4ccnc(O[C@H]5CC[C@H](O)CC5)n4)cc3cn2)cn1 [Example 85, N-(2-(2-((1r,4r)-4-hydroxycyclohexyloxy)pyrimidin-4-yl)-1H-pyrrolo[3,2-c]pyridin-6-yl)-1-methyl-1H-pyrazole-4-carboxamide] |  |  | 67 to 100 | 0 to 33 | > 1 |
| Cn1c(-c2ccccc2)cc2cnc(NC(=O)C3CCOCC3)cc21 [Example 265, N-(1-methyl-2-phenyl-1H-pyrrolo[3,2-c]pyridin-6-yl)tetrahydro-2H-pyran-4-carboxamide] | 0 to 33 | 0 to 33 |  |  |  |
